From patent publication US20230143604A1, “QW DOSING OF GIP RECEPTOR AGONIST PEPTIDE COMPOUNDS AND USES THEREOF” (TAKEDA PHARMACEUTICAL COMPANY LIMITED, priority 2020, published 2023)
Non-standard residues stand in square brackets, D forms with d. Residues, ends and D or L forms follow the SMILES beside them. Groups on a side chain read outwards from the residue. *: point of attachment. C18 diacid = O=C(O)CCCCCCCCCCCCCCCCC(=O)*; NMeY = CN[C@@H](Cc1ccc(O)cc1)C(=O)O; AEEA = NCCOCCOCC(=O)O; Aib = CC(C)(N)C(=O)O

Experiments:
human GLP-1R = molecular target: T1, human GLP-1R (Homo sapiens, UniProt P43220); assay: Human GLP1R agonist activity, intracellular cAMP accumulation; assay type: cell-based; details: HEK-293T cells overexpressing human GLP-1R, 1 hr, read-out: Human GLP1R cAMP EC50, HEK293T
T1 construct: HEK-293T cells overexpressing full-length human GLP-1R; FLAG (N); host or cells: HEK-293T
T1 sequence (P43220 24-463): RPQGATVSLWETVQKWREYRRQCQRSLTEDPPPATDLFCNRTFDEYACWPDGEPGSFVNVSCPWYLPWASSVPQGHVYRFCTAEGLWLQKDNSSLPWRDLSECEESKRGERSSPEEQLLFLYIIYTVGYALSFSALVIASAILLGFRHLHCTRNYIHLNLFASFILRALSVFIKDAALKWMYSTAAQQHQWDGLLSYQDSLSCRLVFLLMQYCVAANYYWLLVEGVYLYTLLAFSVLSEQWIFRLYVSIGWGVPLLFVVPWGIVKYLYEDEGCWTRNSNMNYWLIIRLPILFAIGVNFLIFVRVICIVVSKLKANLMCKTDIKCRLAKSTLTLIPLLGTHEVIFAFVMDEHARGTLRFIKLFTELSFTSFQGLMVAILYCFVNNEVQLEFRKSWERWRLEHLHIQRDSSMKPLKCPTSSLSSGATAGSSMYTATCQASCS
Procedure: Cells are cultured per the manufacturer's protocol in DMEM with 10% fetal bovine serum and 1 μg/mL puromycin and stored in frozen aliquots to be used as assay ready cells. On the day of the assay, cells are removed from frozen storage, washed two times in 1× Kreb's Ringer Buffer (Zenbio, Research Triangle Park, N.C.), and re-suspended to a concentration of 4×10^5 cells/mL in 1× Kreb's Ringer Buffer. […] Cells are incubated with test compound for 1 hr at room temperature in the dark, and cAMP accumulation is measured using the Cisbio HiRange cAMP assay kit (Bedford, Mass.) per the manufacturer's protocol. Anti-cAMP antibody and d2-cAMP tracer reagents diluted in lysis/detection buffer are incubated in the dark for 1 hr, and results are measured on an Envision plate reader (Perkin Elmer, Waltham, Mass.). Data is normalized using 1 nm GLP-1 as 100% activity, and DMSO alone as 0% activity.

physchem = assay: physchem
In short: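 3 mg of peptide treated with 100 μL portions of 200 mM phosphate buffer pH 7.4, sonicating/vortexing up to 1 min, with further buffer added until fully dissolved. Solubility then quantified by HPLC.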

Compound | EC50 (human GLP-1R) [nM] | solubility (physchem; pH 7.4) [mg/mL] | solubility (physchem; pH 7.4, aqueous buffer) [mg/mL]
CC[C@H](C)[C@H](NC(=O)[C@H](CO)NC(=O)[C@H](Cc1ccc(O)cc1)NC(=O)[C@H](CC(=O)O)NC(=O)[C@H](CO)NC(=O)[C@@H](NC(=O)[C@H](Cc1ccccc1)NC(=O)[C@@H](NC(=O)CNC(=O)[C@H](CCC(=O)O)NC(=O)C(C)(C)NC(=O)[C@H](Cc1ccc(O)cc1)NC)[C@@H](C)O)[C@@H](C)CC)C(=O)N[C@@H](C)C(=O)N[C@@H](CCCCNC(=O)CNC(=O)CNC(=O)CNC(=O)CNC(=O)CNC(=O)CCCCCCCCCCCCCCCCC(=O)O)C(=O)N[C@@H](CC(=O)O)C(=O)N[C@@H](CCCNC(=N)N)C(=O)NC(C)(C)C(=O)N[C@@H](C)C(=O)N[C@@H](CCC(N)=O)C(=O)N[C@@H](CCCNC(=N)N)C(=O)N[C@@H](CC(=O)O)C(=O)N[C@@H](Cc1ccccc1)C(=O)N[C@H](C(=O)N[C@@H](CCC(=O)O)C(=O)N[C@@H](Cc1c[nH]c2ccccc12)C(=O)N[C@@H](CC(C)C)C(=O)N[C@@H](CC(C)C)C(=O)N[C@@H](C)C(=O)N[C@@H](CCC(N)=O)C(=O)N[C@@H](CO)C(=O)N1CCC[C@H]1C(=O)NCC(=O)O)C(C)C [Compound 120] | 15.8 | ≥ 15 | ≥ 30
CC[C@H](C)[C@H](NC(=O)[C@H](Cc1ccccc1)NC(=O)[C@@H](NC(=O)CNC(=O)[C@H](CCC(=O)O)NC(=O)C(C)(C)NC(=O)[C@H](Cc1ccc(O)cc1)NC)[C@@H](C)O)C(=O)N[C@@H](CO)C(=O)N[C@@H](CC(=O)O)C(=O)N[C@@H](Cc1ccc(O)cc1)C(=O)N[C@@H](CO)C(=O)N[C@H](C(=O)NC(C)(C)C(=O)N[C@@H](CCCCNC(=O)CNC(=O)CNC(=O)CNC(=O)CNC(=O)CNC(=O)CCCCCCCCCCCCCCCC(=O)O)C(=O)N[C@@H](CC(=O)O)C(=O)N[C@@H](CCCNC(=N)N)C(=O)NC(C)(C)C(=O)N[C@@H](C)C(=O)N[C@@H](CCC(N)=O)C(=O)NC(C)(C)C(=O)N[C@@H](CC(=O)O)C(=O)N[C@@H](Cc1ccccc1)C(=O)N[C@H](C(=O)N[C@@H](CC(N)=O)C(=O)N[C@@H](Cc1c[nH]c2ccccc12)C(=O)N[C@@H](CC(C)C)C(=O)N[C@@H](CC(C)C)C(=O)N[C@@H](C)C(=O)N[C@@H](CCC(N)=O)C(=O)N[C@@H](CCCNC(=N)N)C(=O)NCC(=O)O)C(C)C)[C@@H](C)CC [Compound 98] | 112 | ≥ 15 | ≥ 30
CC[C@H](C)[C@H](NC(=O)[C@H](Cc1ccccc1)NC(=O)[C@@H](NC(=O)CNC(=O)[C@H](CCC(=O)O)NC(=O)C(C)(C)NC(=O)[C@@H](N)Cc1ccc(O)cc1)[C@@H](C)O)C(=O)N[C@@H](CO)C(=O)N[C@@H](CC(=O)O)C(=O)N[C@@H](Cc1ccc(O)cc1)C(=O)N[C@@H](CO)C(=O)N[C@H](C(=O)NC(C)(C)C(=O)N[C@@H](CCCCNC(=O)CNC(=O)CNC(=O)CNC(=O)CNC(=O)CNC(=O)CCCCCCCCCCCCCCCCC(=O)O)C(=O)N[C@@H](CC(=O)O)C(=O)N[C@@H](CO)C(=O)NC(C)(C)C(=O)N[C@@H](C)C(=O)N[C@@H](CCC(N)=O)C(=O)NC(C)(C)C(=O)N[C@@H](CC(=O)O)C(=O)N[C@@H](Cc1ccccc1)C(=O)N[C@H](C(=O)N[C@@H](CC(N)=O)C(=O)N[C@@H](Cc1c[nH]c2ccccc12)C(=O)N[C@@H](CC(C)C)C(=O)N[C@@H](CC(C)C)C(=O)N[C@@H](C)C(=O)N[C@@H](CCC(N)=O)C(=O)N[C@@H](CCCNC(=N)N)C(=O)NCC(=O)O)C(C)C)[C@@H](C)CC [Compound 150] | 13.5 | ≥ 15 | ≥ 30
CC[C@H](C)[C@H](NC(=O)[C@H](CO)NC(=O)[C@H](Cc1ccc(O)cc1)NC(=O)[C@H](CC(=O)O)NC(=O)[C@H](CO)NC(=O)[C@@H](NC(=O)[C@H](Cc1ccccc1)NC(=O)[C@@H](NC(=O)CNC(=O)[C@H](CCC(=O)O)NC(=O)C(C)(C)NC(=O)[C@H](Cc1ccc(O)cc1)NC)[C@@H](C)O)[C@@H](C)CC)C(=O)N[C@@H](C)C(=O)N[C@@H](CC(C)C)C(=O)N[C@@H](CC(=O)O)C(=O)N[C@@H](CCCNC(=N)N)C(=O)N[C@@H](CCCCNC(=O)CNC(=O)CNC(=O)CNC(=O)CNC(=O)CNC(=O)CCCCCCCCCCCCCCCCC(=O)O)C(=O)N[C@@H](C)C(=O)N[C@@H](CCC(N)=O)C(=O)NC(C)(C)C(=O)N[C@@H](CC(=O)O)C(=O)N[C@@H](Cc1ccccc1)C(=O)N[C@H](C(=O)N[C@@H](CC(N)=O)C(=O)N[C@@H](Cc1c[nH]c2ccccc12)C(=O)N[C@@H](CC(C)C)C(=O)N[C@@H](CC(C)C)C(=O)N[C@@H](C)C(=O)N[C@@H](CCC(N)=O)C(=O)N[C@@H](CO)C(=O)N1CCC[C@H]1C(=O)NCC(=O)O)C(C)C [Compound 113] | 13.5 | ≥ 15 | ≥ 30
CC[C@H](C)[C@H](NC(=O)[C@H](CO)NC(=O)[C@H](Cc1ccc(O)cc1)NC(=O)[C@H](CC(=O)O)NC(=O)[C@H](CO)NC(=O)[C@@H](NC(=O)[C@H](Cc1ccccc1)NC(=O)[C@@H](NC(=O)CNC(=O)[C@H](CCC(=O)O)NC(=O)C(C)(C)NC(=O)[C@H](Cc1ccc(O)cc1)NC)[C@@H](C)O)[C@@H](C)CC)C(=O)N[C@@H](C)C(=O)N[C@@H](CCCCNC(=O)CNC(=O)CNC(=O)CNC(=O)CNC(=O)CNC(=O)CCCCCCCCCCCCCCCCC(=O)O)C(=O)N[C@@H](CC(=O)O)C(=O)N[C@@H](CO)C(=O)NC(C)(C)C(=O)N[C@@H](C)C(=O)N[C@@H](CCC(N)=O)C(=O)NC(C)(C)C(=O)N[C@@H](CC(=O)O)C(=O)N[C@@H](Cc1ccccc1)C(=O)N[C@H](C(=O)N[C@@H](CC(N)=O)C(=O)N[C@@H](Cc1c[nH]c2ccccc12)C(=O)N[C@@H](CC(C)C)C(=O)N[C@@H](CC(C)C)C(=O)N[C@@H](C)C(=O)N[C@@H](CCC(N)=O)C(=O)N[C@@H](CO)C(=O)NCC(=O)O)C(C)C [Compound 60] | 100 | ≥ 15 | ≥ 30
CC[C@H](C)[C@H](NC(=O)[C@H](Cc1ccccc1)NC(=O)[C@@H](NC(=O)CNC(=O)[C@H](CCC(=O)O)NC(=O)C(C)(C)NC(=O)[C@H](Cc1ccc(O)cc1)NC)[C@@H](C)O)C(=O)N[C@@H](CO)C(=O)N[C@@H](CC(=O)O)C(=O)N[C@@H](Cc1ccc(O)cc1)C(=O)N[C@@H](CO)C(=O)N[C@H](C(=O)NC(C)(C)C(=O)N[C@@H](CC(C)C)C(=O)N[C@@H](CC(=O)O)C(=O)N[C@@H](CCCNC(=N)N)C(=O)NC(C)(C)C(=O)N[C@@H](C)C(=O)N[C@@H](CCC(N)=O)C(=O)NC(C)(C)C(=O)N[C@@H](CCCCNC(=O)COCCOCCNC(=O)COCCOCCNC(=O)CCCCCCCCCCCCCCCCC(=O)O)C(=O)N[C@@H](Cc1ccccc1)C(=O)N[C@H](C(=O)N[C@@H](CC(N)=O)C(=O)N[C@@H](Cc1c[nH]c2ccccc12)C(=O)N[C@@H](CC(C)C)C(=O)N[C@@H](CC(C)C)C(=O)N[C@@H](C)C(=O)N[C@@H](CCC(N)=O)C(=O)N[C@@H](CCCNC(=N)N)C(=O)NCC(=O)O)C(C)C)[C@@H](C)CC [Compound 219] (H-[NMeY][Aib]EGTFISDYSI[Aib]LDR[Aib]AQ[Aib]K([AEEA-AEEA-C18 diacid])FVNWLLAQRG-OH) | 17.4 | – | –
